Patent US20260109715A1, “IMIDAZOPYRIDINE DERIVATIVES WITH BICYCLIC STRUCTURE” (PUBLIC UNIVERSITY CORPORATION YOKOHAMA CITY UNIVERSITY, priority 2022, published 2026)
Structures can show the parent of a compound that is named as a salt.

Columns and labels:
human SMG1 enzyme = human SMG1 enzyme (Homo sapiens, UniProt Q96Q15); test: Measurement of SMG1 kinase activity (ADP-Glo Kinase Assay); format: biochemical; conditions: purified human SMG1 enzyme 5 nM, Upf1 peptide substrate, ATP 4 μM; qAC50 synonymous with IC50; read-out: Test Example 1 ADP-Glo IC50
human SMG1 enzyme, sequence (Q96Q15 whole entry): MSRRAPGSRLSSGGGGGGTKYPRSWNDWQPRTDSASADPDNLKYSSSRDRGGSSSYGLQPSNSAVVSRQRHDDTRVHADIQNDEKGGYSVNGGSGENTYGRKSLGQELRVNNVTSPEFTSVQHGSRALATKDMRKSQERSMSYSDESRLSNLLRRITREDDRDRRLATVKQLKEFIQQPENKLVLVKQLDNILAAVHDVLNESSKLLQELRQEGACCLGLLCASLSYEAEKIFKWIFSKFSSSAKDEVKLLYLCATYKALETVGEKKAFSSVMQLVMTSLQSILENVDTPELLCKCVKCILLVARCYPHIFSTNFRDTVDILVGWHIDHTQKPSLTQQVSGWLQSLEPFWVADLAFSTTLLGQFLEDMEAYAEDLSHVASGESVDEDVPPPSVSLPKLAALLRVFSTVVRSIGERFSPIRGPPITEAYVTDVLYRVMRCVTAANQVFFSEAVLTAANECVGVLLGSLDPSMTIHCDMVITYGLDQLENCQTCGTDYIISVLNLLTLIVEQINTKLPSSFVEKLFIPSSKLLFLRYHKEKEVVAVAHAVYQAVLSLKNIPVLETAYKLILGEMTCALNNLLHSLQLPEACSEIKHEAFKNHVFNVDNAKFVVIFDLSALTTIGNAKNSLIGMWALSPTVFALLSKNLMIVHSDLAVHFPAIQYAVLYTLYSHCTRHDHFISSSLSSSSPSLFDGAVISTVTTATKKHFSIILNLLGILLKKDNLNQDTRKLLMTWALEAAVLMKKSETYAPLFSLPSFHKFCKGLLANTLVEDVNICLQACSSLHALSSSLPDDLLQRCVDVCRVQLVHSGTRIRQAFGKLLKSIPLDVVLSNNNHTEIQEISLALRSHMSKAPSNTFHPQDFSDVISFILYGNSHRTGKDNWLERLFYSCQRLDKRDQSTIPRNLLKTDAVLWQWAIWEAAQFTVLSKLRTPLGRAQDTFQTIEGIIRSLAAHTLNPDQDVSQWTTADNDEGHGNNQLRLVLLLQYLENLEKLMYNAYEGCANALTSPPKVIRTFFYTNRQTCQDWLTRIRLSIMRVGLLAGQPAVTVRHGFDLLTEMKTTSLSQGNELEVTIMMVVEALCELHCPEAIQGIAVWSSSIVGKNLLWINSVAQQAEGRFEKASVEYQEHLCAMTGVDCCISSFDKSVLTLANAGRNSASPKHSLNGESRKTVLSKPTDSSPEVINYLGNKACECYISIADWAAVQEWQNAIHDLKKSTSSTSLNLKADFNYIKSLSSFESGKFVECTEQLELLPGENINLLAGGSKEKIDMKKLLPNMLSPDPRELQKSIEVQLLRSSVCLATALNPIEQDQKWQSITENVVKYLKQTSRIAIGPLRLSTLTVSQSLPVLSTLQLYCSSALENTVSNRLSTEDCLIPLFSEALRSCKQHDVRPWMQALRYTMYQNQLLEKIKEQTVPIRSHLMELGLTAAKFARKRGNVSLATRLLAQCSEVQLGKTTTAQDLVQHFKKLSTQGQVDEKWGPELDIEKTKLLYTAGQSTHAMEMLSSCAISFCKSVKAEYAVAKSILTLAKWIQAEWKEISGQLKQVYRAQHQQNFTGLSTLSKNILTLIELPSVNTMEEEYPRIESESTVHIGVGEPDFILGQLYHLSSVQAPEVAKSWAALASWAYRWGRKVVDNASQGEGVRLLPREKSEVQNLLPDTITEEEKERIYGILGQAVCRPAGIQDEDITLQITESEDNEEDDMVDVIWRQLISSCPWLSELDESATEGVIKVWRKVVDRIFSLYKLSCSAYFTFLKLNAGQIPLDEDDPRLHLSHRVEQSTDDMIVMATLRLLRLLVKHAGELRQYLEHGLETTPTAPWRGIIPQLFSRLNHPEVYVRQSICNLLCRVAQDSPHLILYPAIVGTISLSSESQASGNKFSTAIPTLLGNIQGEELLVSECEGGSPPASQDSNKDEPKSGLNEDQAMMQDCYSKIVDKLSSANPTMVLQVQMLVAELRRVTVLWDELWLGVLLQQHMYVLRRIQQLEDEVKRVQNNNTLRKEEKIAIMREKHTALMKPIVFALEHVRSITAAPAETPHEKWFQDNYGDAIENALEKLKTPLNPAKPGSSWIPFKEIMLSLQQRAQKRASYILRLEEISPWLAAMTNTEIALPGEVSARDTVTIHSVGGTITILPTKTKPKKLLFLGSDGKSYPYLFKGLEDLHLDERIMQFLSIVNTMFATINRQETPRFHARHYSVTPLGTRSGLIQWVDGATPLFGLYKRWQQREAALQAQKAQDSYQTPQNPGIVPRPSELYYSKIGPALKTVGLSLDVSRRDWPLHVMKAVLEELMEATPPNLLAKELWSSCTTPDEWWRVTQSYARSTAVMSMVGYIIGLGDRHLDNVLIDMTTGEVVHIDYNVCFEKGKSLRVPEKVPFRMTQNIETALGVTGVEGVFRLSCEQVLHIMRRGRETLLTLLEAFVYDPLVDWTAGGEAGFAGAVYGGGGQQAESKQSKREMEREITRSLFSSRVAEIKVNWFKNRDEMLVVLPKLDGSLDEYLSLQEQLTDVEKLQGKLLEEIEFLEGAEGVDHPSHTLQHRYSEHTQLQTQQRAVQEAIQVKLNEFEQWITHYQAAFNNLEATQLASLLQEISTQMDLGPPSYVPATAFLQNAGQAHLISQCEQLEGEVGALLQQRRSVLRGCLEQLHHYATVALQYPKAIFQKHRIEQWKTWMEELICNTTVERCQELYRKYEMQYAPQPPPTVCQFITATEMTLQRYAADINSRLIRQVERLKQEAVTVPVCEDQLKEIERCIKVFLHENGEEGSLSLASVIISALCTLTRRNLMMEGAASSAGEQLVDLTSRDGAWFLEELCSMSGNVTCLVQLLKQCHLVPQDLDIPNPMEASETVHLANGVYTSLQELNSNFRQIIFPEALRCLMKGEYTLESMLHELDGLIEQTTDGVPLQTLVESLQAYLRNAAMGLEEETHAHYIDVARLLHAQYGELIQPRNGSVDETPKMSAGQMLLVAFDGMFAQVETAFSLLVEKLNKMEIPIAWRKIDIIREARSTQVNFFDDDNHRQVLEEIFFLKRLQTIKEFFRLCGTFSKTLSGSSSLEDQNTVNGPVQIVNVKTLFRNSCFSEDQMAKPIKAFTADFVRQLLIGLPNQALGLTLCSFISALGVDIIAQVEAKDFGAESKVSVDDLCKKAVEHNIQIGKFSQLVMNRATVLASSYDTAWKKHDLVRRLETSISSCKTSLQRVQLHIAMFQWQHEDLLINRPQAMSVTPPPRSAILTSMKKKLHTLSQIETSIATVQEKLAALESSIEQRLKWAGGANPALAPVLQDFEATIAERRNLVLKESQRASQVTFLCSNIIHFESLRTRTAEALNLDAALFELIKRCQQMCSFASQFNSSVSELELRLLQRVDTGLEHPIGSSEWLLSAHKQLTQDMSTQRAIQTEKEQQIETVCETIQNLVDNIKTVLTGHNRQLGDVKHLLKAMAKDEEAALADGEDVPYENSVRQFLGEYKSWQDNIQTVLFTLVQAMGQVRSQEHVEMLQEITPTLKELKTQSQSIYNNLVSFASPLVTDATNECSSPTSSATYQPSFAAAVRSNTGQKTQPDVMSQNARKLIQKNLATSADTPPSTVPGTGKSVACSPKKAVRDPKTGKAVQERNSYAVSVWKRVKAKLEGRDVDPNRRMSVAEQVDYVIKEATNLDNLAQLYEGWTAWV
Description: The SMG1 kinase inhibitory activity of a compound of the present invention or a pharmaceutically acceptable salt thereof can be measured, for example, by the method described below. Using purified human SMG1 protein and a substrate peptide as materials, the kinase activity can be measured by the ADP-Glo Kinase Assay; the SMG1 kinase inhibitory activity of a test substance can be evaluated by comparing the kinase activity in the presence and absence of the test substance.
The reaction was performed by the ADP-Glo Kinase Assay (Promega, catalog number V9102) using a 384-well plate under the conditions of an assay buffer (100 mM HEPES (pH 7.5), 50 mM NaCl, 10 mM MnCl2, 0.01% BSA, 0.1% Tween 20.5 mM TCEP). After incubating a test substance (DMSO solution; final DMSO concentration: 1%) and purified human SMG1 enzyme (Genes Dev. 2011 Jan. 15; 25(2): 153-164, produced by Daiichi Sankyo RD Novare Co., Ltd.; final concentration: 5 nM) at room temperature for 15 minutes, a substrate, Upf1 peptide (Biotin-(PEG8) QIDVALSQDSTYQG, produced by Eurofins genomics; final concentration: 8 μg/mL), and ATP (Promega: 4 μM) were added, and the mixture was reacted at room temperature for 60 minutes (see Non-Patent Literature R. Melero, et al., Structure Volume 22, Issue 8, 5 Aug. 2014, Pages 1105-1119 for the Upf1 peptide). ADP-Glo Reagent was added, and the mixture was reacted at room temperature for 40 minutes. Kinase Detection Reagent was added, and the mixture was reacted for another 30 minutes. The luminescence intensity was measured using EnVision (PerkinElmer).
The activity value (%) of the test substance-added well was calculated from the following formula, where the average luminescence intensity of the DMSO-added well was 0% and the average luminescence intensity of the SMG1 enzyme-free well was −100%.
The qAC50 (compound concentration showing 50% inhibition, synonymous with IC50) of the test substance was calculated using the activity value (%) at each concentration by Smart fit of Screener (Genedata). Smart fit is a general 4-parameter logistic regression model.

[1] = tested on: Snhg1 transcript (NMD target gene) in EMT6 murine breast cancer cell line; test: Measurement of NMD inhibitory activity in cells (increase in Snhg1 transcript, real-time PCR); set-up: species or system mouse; conditions: Mus musculus, 6 hours treatment, concentration giving 1/2 of maximum Snhg1 fold change of positive control, read-out: Test Example 2 Cell-based Snhg1 EC50
Protocol: The NMD inhibitory activity of a compound of the present invention or a pharmaceutically acceptable salt thereof in cells can be measured, for example, by the method described below. EMT6 murine breast cancer cell line is treated with a test substance in vitro for 6 hours, and the increase in the transcript of Snhg1, a known NMD target gene, is quantified as an indicator of NMD inhibition. Quantification is performed by real-time PCR.
NMD inhibitory activity was measured by treating EMT6 murine breast cancer cell line (ATCC) with a test substance and quantifying the increase in the transcript of Snhg1, an NMD target gene (see F. Usui, et al., Scientific Reports volume 9, Article number: 1279 (2019) for the NMD target gene). That is, EMT6 cells were suspended in Waymouth's medium (Gibco, 15% FBS) and seeded in a 96-well plate at 2×10^4 cells/well. The cells were cultured for 1 day. The next day, serially diluted test substance (DMSO solution, final DMSO concentration: 2%) was added. After culturing for 6 hours, the supernatant was removed, and RNA was extracted using the RNeasy 96 kit (QIAGEN, 74182). After synthesizing cDNA using the High Capacity cDNA Reverse Transcription kit (Applied Biosystems, 4368813), the cDNA was mixed with PrimeTime Gene Expression Master Mix (Integrated DNA Technologies) and various probes, and gene expression was quantified using QuantStudio 6 Flex (Thermo Fisher Scientific Inc.). For the probe for the Snhg1 gene, which is an NMD target, Mm.PT.58.44039547 (FAM)(Integrated DNA Technologies) was used, and for the probe for the Tbp gene, which is an endogenous control, Mm00446973_m1 Tbp (VIC-PL) (Applied Biosystems) was used. The relative quantification of Snhg1 transcripts was calculated by the ΔΔCT method, using Thp as an endogenous control and setting the expression level of Snhg1 in untreated wells to 1.
A known NMD inhibitory compound (pyrimidine derivative Example 11i, Bioorg Med Chem Lett. 2012, 22(21), 6636-41) was used as a positive control drug for NMD inhibition. The NMD inhibitory activity of the test substance-added well was calculated as follows: the maximum fold change in Sngh1 expression in the positive control drug-added well relative to that in the untreated well was defined as the maximum NMD inhibitory activity, and the EC50 (compound concentration showing 50%/activity) of the test substance showing a ½-fold change was calculated by the GROWTH function of Microsoft Excel.

Cc1nc(Cl)cc2[nH]c(-c3cc4c(-c5c(F)cccc5C#N)nccc4[nH]c3=O)nc12 [Example 45, 2-[3-(6-chloro-4-methyl-1H-imidazo[4,5-c]pyridin-2-yl)-2-oxo-1,2-dihydro-1,6-naphthyridin-5-yl]-3-fluorobenzonitrile] gave an IC50 (human SMG1 enzyme) of 0.8 nM and an EC50 [1] of 11 nM.

Compound CC(C)(O)c1cccc(-c2nccc3[nH]c(=O)c(-c4nc5cnc(Cl)cc5[nH]4)cc23)c1 [Example 46, 3-(6-chloro-1H-imidazo[4,5-c]pyridin-2-yl)-5-[3-(2-hydroxypropan-2-yl)phenyl]-1,6-naphthyridin-2(1H)-one] has an IC50 (human SMG1 enzyme) of 1.8 nM and an EC50 [1] of 115 nM.

Compound O=c1[nH]c2ccnc(-c3cccc(CN4C5CCC4COC5)c3)c2cc1-c1nc2cnc(Cl)cc2[nH]1 [Example 47, 3-(6-chloro-1H-imidazo[4,5-c]pyridin-2-yl)-5-[3-(3-oxa-8-azabicyclo[3.2.1]octan-8-ylmethyl)phenyl]-1,6-naphthyridin-2(1H)-one] has an IC50 (human SMG1 enzyme) of 2.1 nM and an EC50 [1] of 117 nM.

Work on Cc1ccccc1-c1nccc2[nH]c(=O)c(-c3nc4c(N5CCCC(N)C5)nc(Cl)cc4[nH]3)cc12 (stereo not shown) [Example 56, 3-[4-(3-aminopiperidin-1-yl)-6-chloro-1H-imidazo[4,5-c]pyridin-2-yl]-5-(2-methylphenyl)-1,6-naphthyridin-2(1H)-one hydrochloride] yielded an IC50 (human SMG1 enzyme) of 0.52 nM and an EC50 [1] of 1.2 nM.

COc1cc(C)ncc1-c1nccc2[nH]c(=O)c(-c3nc4c(C)nc(Cl)cc4[nH]3)cc12 [Example 59, 3-(6-chloro-4-methyl-1H-imidazo[4,5-c]pyridin-2-yl)-5-(4-methoxy-6-methylpyridin-3-yl)-1,6-naphthyridin-2(1H)-one] gave an IC50 (human SMG1 enzyme) of 0.52 nM and an EC50 [1] of 41 nM.

CCc1nc(Cl)cc2[nH]c(-c3cc4c(-c5cnc(C)cc5OC)nccc4[nH]c3=O)nc12 [Example 60, 3-(6-chloro-4-ethyl-1H-imidazo[4,5-c]pyridin-2-yl)-5-(4-methoxy-6-methylpyridin-3-yl)-1,6-naphthyridin-2(1H)-one] gave an IC50 (human SMG1 enzyme) of 0.7 nM and an EC50 [1] of 5.7 nM.

In the case of COc1cc(C2CC2)ncc1-c1nccc2[nH]c(=O)c(-c3nc4cnc(Cl)cc4[nH]3)cc12 [Example 62, 3-(6-chloro-1H-imidazo[4,5-c]pyridin-2-yl)-5-(6-cyclopropyl-4-methoxypyridin-3-yl)-1,6-naphthyridin-2(1H)-one], the IC50 (human SMG1 enzyme) is reported as 0.95 nM and the EC50 [1] is reported as 16 nM.

In the case of COc1cc(C(F)F)ncc1-c1nccc2[nH]c(=O)c(-c3nc4c(C)nc(Cl)cc4[nH]3)cc12 [Example 63, 3-(6-chloro-4-methyl-1H-imidazo[4,5-c]pyridin-2-yl)-5-[6-(difluoromethyl)-4-methoxypyridin-3-yl]-1,6-naphthyridin-2(1H)-one], the IC50 (human SMG1 enzyme) is reported as 0.68 nM and the EC50 [1] is reported as 14 nM.

COc1cc(C(F)(F)F)ncc1-c1nccc2[nH]c(=O)c(-c3nc4c(C)nc(Cl)cc4[nH]3)cc12 [Example 64, 3-(6-chloro-4-methyl-1H-imidazo[4,5-c]pyridin-2-yl)-5-[4-methoxy-6-(trifluoromethyl)pyridin-3-yl]-1,6-naphthyridin-2(1H)-one] showed an IC50 (human SMG1 enzyme) of 0.84 nM and an EC50 [1] of 15 nM.

COc1cc(C(C)(F)F)ncc1-c1nccc2[nH]c(=O)c(-c3nc4c(C)nc(Cl)cc4[nH]3)cc12 [Example 65, 3-(6-chloro-4-methyl-1H-imidazo[4,5-c]pyridin-2-yl)-5-[6-(1,1-difluoroethyl)-4-methoxypyridin-3-yl]-1,6-naphthyridin-2(1H)-one] was tested, and the IC50 (human SMG1 enzyme) was 0.69 nM and the EC50 [1] was 15 nM.

COc1nc(C)ccc1-c1nccc2[nH]c(=O)c(-c3nc4cnc(Cl)cc4[nH]3)cc12 [Example 66, 3-(6-chloro-1H-imidazo[4,5-c]pyridin-2-yl)-5-(2-methoxy-6-methylpyridin-3-yl)-1,6-naphthyridin-2(1H)-one] gave an IC50 (human SMG1 enzyme) of 2.2 nM and an EC50 [1] of 67 nM.

COc1nc(C)ccc1-c1nccc2[nH]c(=O)c(-c3nc4c(C)nc(Cl)cc4[nH]3)cc12 [Example 67, 3-(6-chloro-4-methyl-1H-imidazo[4,5-c]pyridin-2-yl)-5-(2-methoxy-6-methylpyridin-3-yl)-1,6-naphthyridin-2(1H)-one] gave an IC50 (human SMG1 enzyme) of 1 nM and an EC50 [1] of 32 nM.

COc1nc(C)ncc1-c1nccc2[nH]c(=O)c(-c3nc4c(NCC(F)F)nc(Cl)cc4[nH]3)cc12 [Example 69, 3-(6-chloro-4-[(2,2-difluoroethyl)amino]-1H-imidazo[4,5-c]pyridin-2-yl)-5-(4-methoxy-2-methylpyrimidin-5-yl)-1,6-naphthyridin-2(1H)-one] was tested, and the IC50 (human SMG1 enzyme) was 0.91 nM and the EC50 [1] was 6.8 nM.

COc1ncc(-c2nccc3[nH]c(=O)c(-c4nc5c(N6C[C@H](F)C[C@H]6C)nc(Cl)cc5[nH]4)cc23)c(OC)n1 [Example 71, 3-(6-chloro-4-[(2R,4R)-4-fluoro-2-methylpyrrolidin-1-yl]-1H-imidazo[4,5-c]pyridin-2-yl)-5-(2,4-dimethoxypyrimidin-5-yl)-1,6-naphthyridin-2(1H)-one] was tested, and the IC50 (human SMG1 enzyme) was 1.3 nM and the EC50 [1] was 2.3 nM.

CCc1nc(Cl)cc2[nH]c(-c3cc4c(-c5cnc(C6CC6)cc5OC(F)F)nccc4[nH]c3=O)nc12 [Example 75, 3-(6-chloro-4-ethyl-1H-imidazo[4,5-c]pyridin-2-yl)-5-[6-cyclopropyl-4-(difluoromethoxy)pyridin-3-yl]-1,6-naphthyridin-2(1H)-one] showed an IC50 (human SMG1 enzyme) of 1.2 nM and an EC50 [1] of 51 nM.

In the case of Cn1ccc(-c2nccc3[nH]c(=O)c(-c4nc5cnc(Cl)cc5[nH]4)cc23)c1 [Example 86, 3-(6-chloro-1H-imidazo[4,5-c]pyridin-2-yl)-5-(1-methyl-1H-pyrrol-3-yl)-1,6-naphthyridin-2(1H)-one], the IC50 (human SMG1 enzyme) is reported as 1.8 nM and the EC50 [1] is reported as 43 nM.

For CCc1nc(Cl)cc2[nH]c(-c3cc4c(-c5c(C)cnn5C)nccc4[nH]c3=O)nc12 [Example 87, 3-(6-chloro-4-ethyl-1H-imidazo[4,5-c]pyridin-2-yl)-5-(1,4-dimethyl-1H-pyrazol-5-yl)-1,6-naphthyridin-2(1H)-one], the IC50 (human SMG1 enzyme) was 1.3 nM and the EC50 [1] was 59 nM.

With Cc1nn(C)c(C)c1-c1nccc2[nH]c(=O)c(-c3nc4cnc(Cl)cc4[nH]3)cc12 [Example 88, 3-(6-chloro-1H-imidazo[4,5-c]pyridin-2-yl)-5-(1,3,5-trimethyl-1H-pyrazol-4-yl)-1,6-naphthyridin-2(1H)-one] the IC50 (human SMG1 enzyme) was 1.1 nM and the EC50 [1] was 46 nM.

In the case of CCc1nc(Cl)cc2[nH]c(-c3cc4c(-c5c(C)nn(C)c5C)nccc4[nH]c3=O)nc12 [Example 89, 3-(6-chloro-4-ethyl-1H-imidazo[4,5-c]pyridin-2-yl)-5-(1,3,5-trimethyl-1H-pyrazol-4-yl)-1,6-naphthyridin-2(1H)-one], the IC50 (human SMG1 enzyme) is reported as 0.59 nM and the EC50 [1] is reported as 14 nM.

Cc1nn(CC2CC2)c(C)c1-c1nccc2[nH]c(=O)c(-c3nc4cnc(Cl)cc4[nH]3)cc12 [Example 90, 3-(6-chloro-1H-imidazo[4,5-c]pyridin-2-yl)-5-[1-(cyclopropylmethyl)-3,5-dimethyl-1H-pyrazol-4-yl]-1,6-naphthyridin-2(1H)-one] showed an IC50 (human SMG1 enzyme) of 1.5 nM and an EC50 [1] of 74 nM.
